system: IL-1β release from THP-1 cells; assay: IL-1β Release Assay (Alternate Method), THP-1 cells; format: cell-based, human; conditions: at 0.3 μM; THP-1 cells
Procedure, shortened: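 THP-1 cells differentiated 16 h with 100 ng/mL LPS plus 100 ng/mL IFN-γ, reprimed 2 h with 100 ng/mL LPS, pretreated 30 min with compound, then challenged 45 min with 250 uM BzATP (final). Supernatant IL-1β quantified by ELISA; percent inhibition from background-adjusted levels versus untreated cells.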

| Structure (SMILES) | IL-1β % inhibition |
| --- | --- |
| N#Cc1ccc(S(=O)(=O)N2CCc3c(ncnc3NC(=O)CC34CC5CC(CC(C5)C3)C4)C2)c(Cl)c1 [Compound 165] | +++ (compound exhibited 50-75% inhibition at 0.3 μM) |
| O=C(CC12CC3CC(CC(C3)C1)C2)Nc1ncnc2c1CCN(S(=O)(=O)c1ccccc1F)C2 [Compound 166] | ++ (compound exhibited 25-50% inhibition at 0.3 μM) |
| N#Cc1ccc(S(=O)(=O)N2CCc3c(ncnc3NC(=O)CC34CC5CC(CC(C5)C3)C4)C2)cc1 [Compound 167] | ++ (compound exhibited 25-50% inhibition at 0.3 μM) |
| O=C(CC12CC3CC(CC(C3)C1)C2)Nc1ncnc2c1CCN(S(=O)(=O)c1cccc(Cl)c1)C2 [Compound 168] | ++++ (compound exhibited 75% or greater inhibition at 0.3 μM) |
| Cc1noc(C)c1S(=O)(=O)N1CCc2c(ncnc2NC(=O)CC23CC4CC(CC(C4)C2)C3)C1 [Compound 169] | ++ (compound exhibited 25-50% inhibition at 0.3 μM) |
| O=C(CC12CC3CC(CC(C3)C1)C2)Nc1ncnc2c1CCN(S(=O)(=O)c1ccc(Oc3ccccn3)cc1)C2 [Compound 172] | +++ (compound exhibited 50-75% inhibition at 0.3 μM) |
| O=C(CC12CC3CC(CC(C3)C1)C2)Nc1ncnc2c1CCN(S(=O)(=O)c1ccc(Oc3cccnc3)cc1)C2 [Compound 174] | ++++ (compound exhibited 75% or greater inhibition at 0.3 μM) |
| COc1ccc(Oc2ccc(S(=O)(=O)N3CCc4c(ncnc4NC(=O)CC45CC6CC(CC(C6)C4)C5)C3)cc2)cc1 [Compound 175] | +++ (compound exhibited 50-75% inhibition at 0.3 μM) |
| O=C(CC12CC3CC(CC(C3)C1)C2)Nc1ncnc2c1CCN(S(=O)(=O)c1ccc(Oc3ccc(C(F)(F)F)cc3)cc1)C2 [Compound 177] | ++ (compound exhibited 25-50% inhibition at 0.3 μM) |
| O=C(CC12CC3CC(CC(C3)C1)C2)Nc1ncnc2c1CCN(S(=O)(=O)c1cc(C(F)(F)F)ccc1Cl)C2 [Compound 181] | ++ (compound exhibited 25-50% inhibition at 0.3 μM) |
| O=C(CC12CC3CC(CC(C3)C1)C2)Nc1ncnc2c1CCN(S(=O)(=O)Cc1cc(C(F)(F)F)cc(C(F)(F)F)c1)C2 [Compound 182] | +++ (compound exhibited 50-75% inhibition at 0.3 μM) |
| O=C(CC12CC3CC(CC(C3)C1)C2)Nc1ncnc2c1CCN(S(=O)(=O)Cc1ccc(C(F)(F)F)cc1)C2 [Compound 183] | ++ (compound exhibited 25-50% inhibition at 0.3 μM) |
| O=C(CC12CC3CC(CC(C3)C1)C2)Nc1ncnc2c1CCN(S(=O)(=O)Cc1ccc(F)cc1)C2 [Compound 184] | ++++ (compound exhibited 75% or greater inhibition at 0.3 μM) |
| O=C(CC12CC3CC(CC(C3)C1)C2)Nc1ncnc2c1CCN(S(=O)(=O)Cc1ccc(Cl)c(Cl)c1)C2 [Compound 185] | ++ (compound exhibited 25-50% inhibition at 0.3 μM) |
| O=C(CC12CC3CC(CC(C3)C1)C2)Nc1ncnc2c1CCN(S(=O)(=O)Cc1cc(Cl)cc(Cl)c1)C2 [Compound 186] | ++++ (compound exhibited 75% or greater inhibition at 0.3 μM) |
| O=C(CC12CC3CC(CC(C3)C1)C2)Nc1ncnc2c1CCN(S(=O)(=O)Cc1cccc(C(F)(F)F)c1)C2 [Compound 187] | ++++ (compound exhibited 75% or greater inhibition at 0.3 μM) |
| O=C(CC12CC3CC(CC(C3)C1)C2)Nc1ncnc2c1CCN(S(=O)(=O)Cc1ccc(Cl)cc1)C2 [Compound 189] | ++++ (compound exhibited 75% or greater inhibition at 0.3 μM) |
| O=C(CC12CC3CC(CC(C3)C1)C2)Nc1ncnc2c1CCN(S(=O)(=O)c1ccc(OC(F)F)cc1)C2 [Compound 190] | +++ (compound exhibited 50-75% inhibition at 0.3 μM) |
| O=C(CC12CC3CC(CC(C3)C1)C2)Nc1ncnc2c1CCN(S(=O)(=O)c1ccc(Oc3ccccc3)cc1)C2 [Compound 191] | + (compound exhibited 0-25% inhibition at 0.3 μM) |

| Structure (SMILES) | IL-1β % inhibition |
| --- | --- |
| O=C(CC12CC3CC(CC(C3)C1)C2)Nc1ncnc2c1CCN(S(=O)(=O)c1ccccc1Cl)C2 [Compound 192] | +++ (compound exhibited 50-75% inhibition at 0.3 μM) |
| O=C(CC12CC3CC(CC(C3)C1)C2)Nc1ncnc2c1CCN(S(=O)(=O)c1ccc(F)c(Cl)c1)C2 [Compound 193] | + (compound exhibited 0-25% inhibition at 0.3 μM) |
| O=C(CC12CC3CC(CC(C3)C1)C2)Nc1ncnc2c1CCN(S(=O)(=O)c1ccccc1-c1ccccc1)C2 [Compound 194] | ++++ (compound exhibited 75% or greater inhibition at 0.3 μM) |
| O=C(CC12CC3CC(CC(C3)C1)C2)Nc1ncnc2c1CCN(S(=O)(=O)c1ccccc1C(F)(F)F)C2 [Compound 195] | + (compound exhibited 0-25% inhibition at 0.3 μM) |
| COc1ccc(S(=O)(=O)N2CCc3c(ncnc3NC(=O)CC34CC5CC(CC(C5)C3)C4)C2)c(OC)c1 [Compound 197] | ++++ (compound exhibited 75% or greater inhibition at 0.3 μM) |
| Cc1nn(C)c(C)c1S(=O)(=O)N1CCc2c(ncnc2NC(=O)CC23CC4CC(CC(C4)C2)C3)C1 [Compound 198] | + (compound exhibited 0-25% inhibition at 0.3 μM) |
| Cc1ccccc1S(=O)(=O)N1CCc2c(ncnc2NC(=O)CC23CC4CC(CC(C4)C2)C3)C1 [Compound 199] | ++++ (compound exhibited 75% or greater inhibition at 0.3 μM) |
| O=C(CC12CC3CC(CC(C3)C1)C2)Nc1ncnc2c1CCN(S(=O)(=O)c1ccc3c(c1)OCCO3)C2 [Compound 200] | + (compound exhibited 0-25% inhibition at 0.3 μM) |
| O=C(CC12CC3CC(CC(C3)C1)C2)Nc1ncnc2c1CCN(S(=O)(=O)c1ccc(Cl)cc1F)C2 [Compound 202] | ++ (compound exhibited 25-50% inhibition at 0.3 μM) |
| O=C(CC12CC3CC(CC(C3)C1)C2)Nc1ncnc2c1CCN(S(=O)(=O)c1cc(F)ccc1F)C2 [Compound 203] | + (compound exhibited 0-25% inhibition at 0.3 μM) |
| O=C(CC12CC3CC(CC(C3)C1)C2)Nc1ncnc2c1CCN(S(=O)(=O)c1cc(Cl)ccc1Cl)C2 [Compound 204] | + (compound exhibited 0-25% inhibition at 0.3 μM) |
| O=C(CC12CC3CC(CC(C3)C1)C2)Nc1ncnc2c1CCN(S(=O)(=O)c1cc(Cl)ccc1F)C2 [Compound 205] | + (compound exhibited 0-25% inhibition at 0.3 μM) |
| O=C(CC12CC3CC(CC(C3)C1)C2)Nc1ncnc2c1CCN(S(=O)(=O)c1c(F)cccc1F)C2 [Compound 206] | + (compound exhibited 0-25% inhibition at 0.3 μM) |
| Cc1ccc(S(=O)(=O)N2CCc3c(ncnc3NC(=O)CC34CC5CC(CC(C5)C3)C4)C2)cc1Cl [Compound 207] | +++ (compound exhibited 50-75% inhibition at 0.3 μM) |
| O=C(CC12CC3CC(CC(C3)C1)C2)Nc1ncnc2c1CCN(S(=O)(=O)c1cc(Cl)cc(Cl)c1)C2 [Compound 208] | +++ (compound exhibited 50-75% inhibition at 0.3 μM) |
| O=C(CC12CC3CC(CC(C3)C1)C2)Nc1ncnc2c1CCN(S(=O)(=O)c1ccc(F)cc1F)C2 [Compound 209] | ++++ (compound exhibited 75% or greater inhibition at 0.3 μM) |
| O=C(CC12CC3CC(CC(C3)C1)C2)Nc1ncnc2c1CCN(S(=O)(=O)c1c(Cl)cccc1Cl)C2 [Compound 210] | + (compound exhibited 0-25% inhibition at 0.3 μM) |
| O=C(CC12CC3CC(CC(C3)C1)C2)Nc1ncnc2c1CCN(S(=O)(=O)c1ccc(F)cc1Cl)C2 [Compound 211] | + (compound exhibited 0-25% inhibition at 0.3 μM) |
